Data from patent publication US11690850B2, “Inhibitors of receptor interacting protein kinase I for the treatment of disease” (Board of Regents, The University of Texas System, priority 2019, dated 2023).

How the values were obtained:
RIPK1 = RIPK1 (Homo sapiens (Human), UniProt Q13546); assay: ADP-Glo Kinase Assay; assay type: biochemical; details: 5 nM RIPK1 protein, 50 μM ATP, 6 hr reaction, average value across multiple runs
Procedure, shortened: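 ADP formed from ATP is measured by ADP-Glo luminescence with 5 nM RIPK1, preincubated 10 min with compound, then 50 μM ATP for 6 h. Buffer is 50 mM HEPES pH 7.5, 50 mM NaCl, 30 mM MgCl2, 1 mM DTT, 0.05% BSA, 0.02% CHAPS. IC50 comes from a four-parameter fit, averaged over runs.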

[1] = tested on: human monocytic cell line U937; assay: Human U937 Cellular Necroptosis Assay; assay type: cell-based; details: U-937; U937 cells stimulated with 25 ng/mL human TNFalpha and 25 μM z-VAD-FMK, 22 hr, viability by Cell Titer-Glo 2.0; average value across multiple runs; read-out: hU937 IC50
Method: Human U937 Cellular Necroptosis Assay
The human monocytic cell line U937 (CRL-1593.2) was purchased from ATCC. The cells were routinely maintained in RPMI-1640 Medium (Gibco, Catalog #11875-093) supplemented with 10% heat inactivated fetal bovine serum (Gibco, Catalog #16140-071), 100 units/mL penicillin and 100 μg/mL streptomycin (Gibco, Catalog #15140-122), in a humidified incubator (37° C., 5% CO2). For the assay, cells were resuspended in RPMI-1640 phenol red free Media (Gibco, Catalog #11835-030) supplemented with 10% fetal bovine serum (Sigma, Catalog #F2442), 100 units/mL penicillin and 100 ug/mL streptomycin. Cells were stimulated with 25 ng/mL human TNFalpha (Cell Sciences, Catalog #CSI15659B) and 25 μM z-VAD-FMK (R&D Systems, Catalog #FMK001) followed by seeding 5000 cells per well in a volume of 40 μL to a white, CulturPlate-384 (Perkin Elmer, Catalog #6007680). Stock solutions of the test compounds were prepared in 100% DMSO (Sigma, Catalog #D2650) and serially diluted 1:3 using 100% DMSO. Compounds were additionally diluted 1:40 in assay medium, and 10 μL/well was transferred to the plate. Following the compound addition the plate was incubated at 37° C. and 5% CO2 for 22 hr. After 22 hr, viability was assessed with the addition of 20 μL of Cell Titer-Glo 2.0 (Promega, Catalog #G9243). The tissue culture plate was shaken on an orbital shaker at 300 RPM for 15 minutes at room temperature in the dark. Luminescence was measured using a PerkinElmer Envision™ plate reader. IC50 values were calculated using a four-parameter logistic curve fit using Genedata Screener software. Results are shown below in Table 5, where the average value across multiple runs is given.

Chain of RIPK1 (Q13546 1-327): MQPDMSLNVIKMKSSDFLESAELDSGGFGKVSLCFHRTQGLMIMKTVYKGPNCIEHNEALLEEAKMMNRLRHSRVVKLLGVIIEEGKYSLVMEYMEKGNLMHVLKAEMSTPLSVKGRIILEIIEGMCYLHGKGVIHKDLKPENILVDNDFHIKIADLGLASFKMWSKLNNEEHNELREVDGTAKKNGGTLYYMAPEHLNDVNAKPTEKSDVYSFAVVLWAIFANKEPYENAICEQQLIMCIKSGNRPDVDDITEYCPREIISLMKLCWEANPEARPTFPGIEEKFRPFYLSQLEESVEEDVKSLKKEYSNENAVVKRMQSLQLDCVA

| SMILES | IC50 (RIPK1) | IC50 [1] |
| --- | --- | --- |
| Cc1cc(=O)c(C(=O)NC2CCc3cc(F)cc(F)c3NC2=O)nn1-c1ccccc1 (centres unmarked) [Example 48, N-(7,9-difluoro-2-oxo-2,3,4,5-tetrahydro-1H-benzo[b]azepin-3-yl)-6-methyl-4-oxo-1-phenyl-1,4-dihydropyridazine-3-carboxamide] | 51 nM | 70 nM |
| Cc1cc(=O)c(C(=O)NC2CCc3cc(F)cc(F)c3N(C)C2=O)nn1-c1ccccc1 (centres unmarked) [Example 49, N-(7,9-difluoro-1-methyl-2-oxo-2,3,4,5-tetrahydro-1H-benzo[b]azepin-3-yl)-6-methyl-4-oxo-1-phenyl-1,4-dihydropyridazine-3-carboxamide] | 64 nM | 66 nM |
| Cc1cc(=O)c(C(=O)N[C@H]2COc3cccnc3N(C)C2=O)nn1-c1ccccc1 [Example 50, (S)-6-methyl-N-(5-methyl-4-oxo-2,3,4,5-tetrahydropyrido[3,2-b][1,4]oxazepin-3-yl)-4-oxo-1-phenyl-1,4-dihydropyridazine-3-carboxamide] | 28 nM | 33 nM |
| Cc1ccc(-n2nc(C(=O)NC3CCc4ccccc4NC3=O)c(=O)cc2C)cn1 (centres unmarked) [Example 51, 6-methyl-1-(6-methylpyridin-3-yl)-4-oxo-N-(2-oxo-2,3,4,5-tetrahydro-1H-benzo[b]azepin-3-yl)-1,4-dihydro-pyridazine-3-carboxamide] | 1970 nM | 1700 nM |
| Cc1cc(=O)c(C(=O)NC2CCc3ccccc3NC2=O)nn1-c1cccc(C#N)c1 (centres unmarked) [Example 53, 1-(3-cyanophenyl)-6-methyl-4-oxo-N-(2-oxo-2,3,4,5-tetrahydro-1H-benzo[b]azepin-3-yl)-1,4-dihydropyridazine-3-carboxamide] | 652 nM | 591 nM |
| Cc1cc(=O)c(C(=O)NC2CCc3ccccc3NC2=O)nn1-c1cccc(F)c1 (centres unmarked) [Example 54, 1-(3-fluorophenyl)-6-methyl-4-oxo-N-(2-oxo-2,3,4,5-tetrahydro-1H-benzo[b]-azepin-3-yl)-1,4-dihydropyridazine-3-carboxamide] | 27 nM | 53 nM |
| Cc1cc(=O)c(C(=O)N[C@H]2COc3cc(C#N)ccc3N(C)C2=O)nn1-c1ccccc1 [Example 55, (S)-N-(8-cyano-5-methyl-4-oxo-2,3,4,5-tetrahydrobenzo[b][1,4]oxazepin-3-yl)-6-methyl-4-oxo-l-phenyl-1,4-dihydropyridazine-3-carboxamide] | 33 nM | 54 nM |
| Cc1cc(=O)c(C(=O)NC2CCc3ccccc3NC2=O)nn1-c1ccc(C#N)cc1 (centres unmarked) [Example 56, 1-(4-cyanophenyl)-6-methyl-4-oxo-N-(2-oxo-2,3,4,5-tetrahydro-1H-benzo[b]-azepin-3-yl)-1,4-dihydropyridazine-3-carboxamide] | 85 nM | 292 nM |
| Cc1cc(=O)c(C(=O)NC2CCc3ccccc3NC2=O)nn1-c1ccc(F)cc1 (centres unmarked) [Example 57, 1-(4-fluorophenyl)-6-methyl-4-oxo-N-(2-oxo-2,3,4,5-tetrahydro-1H-benzo[b]-azepin-3-yl)-1,4-dihydropyridazine-3-carboxamide] | 20 nM | 41 nM |
| Cc1cc(=O)c(C(=O)NC2CCc3ccccc3NC2=O)nn1-c1ccccc1F (centres unmarked) [Example 59, 1-(2-fluorophenyl)-6-methyl-4-oxo-N-(2-oxo-2,3,4,5-tetrahydro-1H-benzo[b]-azepin-3-yl)-1,4-dihydropyridazine-3-carboxamide] | 33.5 nM | 74 nM |
| Cc1cc(=O)c(C(=O)N[C@H]2COc3cc(C#N)ccc3N(C)C2=O)nn1-c1ccc(C#N)cc1 [Example 60, (S)-N-(8-cyano-5-methyl-4-oxo-2,3,4,5-tetrahydrobenzo[b][1,4]oxazepin-3-yl)-1-(4-cyanophenyl)-6-methyl-4-oxo-1,4-dihydropyridazine-3-carboxamide] | 84.9 nM | 424 nM |
| Cc1cc(=O)c(C(=O)N[C@H]2COc3cc(C#N)ccc3N(C)C2=O)nn1-c1cccc(F)c1 [Example 61, (S)-N-(8-cyano-5-methyl-4-oxo-2,3,4,5-tetrahydrobenzo[b][1,4]oxazepin-3-yl)-1-(3-fluorophenyl)-6-methyl-4-oxo-1,4-dihydropyridazine-3-carboxamide] | 57.4 nM | 88 nM |
| Cc1ccc(-n2nc(C(=O)N[C@H]3COc4cc(C#N)ccc4N(C)C3=O)c(=O)cc2C)cc1F [Example 62, (S)-N-(8-cyano-5-methyl-4-oxo-2,3,4,5-tetrahydrobenzo[b][1,4]oxazepin-3-yl)-1-(3-fluoro-4-methylphenyl)-6-methyl-4-oxo-1,4-dihydropyridazine-3-carboxamide] | 48 nM | 67 nM |
| Cc1cccc(-n2nc(C(=O)NC3CCc4ccccc4NC3=O)c(=O)cc2C)c1 (centres unmarked) [Example 64, 6-methyl-4-oxo-N-(2-oxo-2,3,4,5-tetrahydro-1H-benzo[b]azepin-3-yl)-1-(m-tolyl)-1,4-dihydropyridazine-3-carboxamide] | 43.1 nM | 77.8 nM |
| COc1ccc(-n2nc(C(=O)NC3CCc4ccccc4NC3=O)c(=O)cc2C)cc1 (centres unmarked) [Example 65, 1-(4-methoxyphenyl)-6-methyl-4-oxo-N-(2-oxo-2,3,4,5-tetrahydro-1H-benzo[b]azepin-3-yl)-1,4-dihydropyridazine-3-carboxamide] | 47.6 nM | 124 nM |

The next lines start with results.

| IC50 (RIPK1) | SMILES | IC50 [1] |
| --- | --- | --- |
| 30.2 nM | Cc1cc(=O)c(C(=O)NC2CCc3ccccc3NC2=O)nn1-c1ccc(Cl)cc1 (centres unmarked) [Example 66, 1-(4-chlorophenyl)-6-methyl-4-oxo-N-(2-oxo-2,3,4,5-tetrahydro-1H-benzo[b]azepin-3-yl)-1,4-dihydro-pyridazine-3-carboxamide] | 80.4 nM |
| 68.2 nM | COc1cccc(-n2nc(C(=O)NC3CCc4ccccc4NC3=O)c(=O)cc2C)c1 (centres unmarked) [Example 67, 1-(3-methoxyphenyl)-6-methyl-4-oxo-N-(2-oxo-2,3,4,5-tetrahydro-1H-benzo[b]-azepin-3-yl)-1,4-dihydropyridazine-3-carboxamide] | 281 nM |
| 57.8 nM | Cc1cc(=O)c(C(=O)NC2CCc3ccccc3NC2=O)nn1-c1cccc(Cl)c1 (centres unmarked) [Example 68, 1-(3-chlorophenyl)-6-methyl-4-oxo-N-(2-oxo-2,3,4,5-tetrahydro-1H-benzo[b]-azepin-3-yl)-1,4-dihydropyridazine-3-carboxamide] | 142 nM |
| 8500 nM | Cc1cc(=O)c(C(=O)NC2CCc3cc(F)cc(F)c3NC2)nn1-c1ccccc1 (centres unmarked) [Example 69, N-(7,9-difluoro-2,3,4,5-tetrahydro-1H-benzo[b]azepin-3-yl)-6-methyl-4-oxo-1-phenyl-1,4-dihydropyridazine-3-carboxamide] | 10000 nM |
| 28.9 nM | O=C(NC1CCc2ccccc2NC1=O)c1nn(-c2ccccc2)c2ccccc2c1=O (centres unmarked) [Example 70, 4-oxo-N-(2-oxo-2,3,4,5-tetrahydro-1H-benzo[b]azepin-3-yl)-1-phenyl-1,4-dihydrocinnoline-3-carboxamide] | 227 nM |
| 30.9 nM | Cc1ccc(-n2nc(C(=O)NC3CCc4ccccc4NC3=O)c(=O)cc2C)cc1 (centres unmarked) [Example 71, 6-methyl-4-oxo-N-(2-oxo-2,3,4,5-tetrahydro-1H-benzo[b]azepin-3-yl)-1-(p-tolyl)-1,4-dihydropyridazine-3-carboxamide] | 50.2 nM |
| 90.6 nM | Cc1cc(=O)c(C(=O)NC2CCn3nccc3N(C)C2=O)nn1-c1ccccc1 (stereo not drawn) [Example 72, 6-methyl-N-(4-methyl-5-oxo-5,6,7,8-tetrahydro-4H-pyrazolo[1,5-a][1,3]diazepin-6-yl)-4-oxo-l-phenyl-1,4-dihydropyridazine-3-carboxamide] | 222 nM |
